Laboratory results published in patent publication US20240246908A1 (ORION CORPORATION, priority 2021, published 2024).

System: YAP-TEAD
Experiment: TEAD inhibition, Hippo Pathway TEAD Reporter MCF-7 luciferase assay
Assay type: cell-based
Details: Homo sapiens, MCF7, 24 h, Hippo Pathway TEAD Reporter MCF-7 cells, luciferase activity after 24 h; read-out: IC50 of the test compounds on YAP-TEAD inhibition (Group)
Method in brief: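 IC50 derived from ONE-Glo luciferase luminescence after 24 h compound exposure (11 concentrations in quadruplicate, 0.1% DMSO control). Reporter: MCF-7 line expressing firefly luciferase under TEAD elements, constitutively activated by nuclear YAP1.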

SMILES	IC50 [nM]
COc1ccc(NC(=O)C2CCC(=O)N2C)cc1O[C@H]1CC[C@H](C(F)(F)F)CC1 (stereo partly drawn) [Compound 271, (R)—N-(4-methoxy-3-(((1r,4R)-4-(trifluoromethyl)cyclohexyl)oxy)phenyl)-1-methyl-5-oxopyrrolidine-2-carboxamide]	50 to 300
COc1ccc(NC(=O)[C@@H]2CCC(=O)N2C)cc1O[C@H]1CC[C@@H](C(F)(F)F)CC1 [Compound 272, (R)—N-(4-Methoxy-3-(((1s,4S)-4-(trifluoromethyl)cyclohexyl)oxy)phenyl)-1-methyl-5-oxopyrrolidine-2-carboxamide]	301 to 2000
COc1cc(NC(=O)C2CCC(=O)N2C)cc(Oc2cccc(C(F)(F)F)c2)c1 (stereo not shown) [Compound 273, N-(3-Methoxy-5-(3-(trifluoromethyl)phenoxy)phenyl)-1-methyl-5-oxo-pyrrolidine-2-carboxamide]	50 to 300
COc1cc(NC(=O)C2CCC(=O)N2C)cc(Oc2ccc(Cl)c(C(F)(F)F)c2)c1 (stereo not shown) [Compound 274, N-(3-(4-Chloro-3-(trifluoromethyl)phenoxy)-5-methoxyphenyl)-1-methyl-5-oxopyrrolidine-2-carboxamide]	50 to 300
COc1cc(NC(=O)C2CCC(=O)N2C)cc(Oc2ccc(C(F)(F)F)cn2)c1 (stereo not shown) [Compound 277, N-(3-Methoxy-5-((5-(trifluoromethyl)pyridin-2-yl)oxy)phenyl)-1-methyl-5-oxopyrrolidine-2-carboxamide]	50 to 300
CN1C(=O)CC[C@@H]1C(=O)Nc1cc(Oc2ccc(C(F)(F)F)cn2)cc2cccnc12 [Compound 281, (R)-1-Methyl-5-oxo-N-(6-((5-(trifluoromethyl)pyridin-2-yl)oxy)quinolin-8-yl)pyrrolidine-2-carboxamide]	50 to 300
COc1cc(NC(=O)C2CCC(=O)N2C)cc(Oc2ccc(F)c(F)c2)c1 (stereo not shown) [Compound 284, N-(3-(3,4-Difluorophenoxy)-5-methoxyphenyl)-1-methyl-5-oxopyrrolidine-2-carboxamide]	50 to 300
COc1cc(NC(=O)[C@H]2CCC(=O)N2C)cc(Oc2ccc(F)c(F)c2)c1 [Compound 285, (R)—N-(3-(3,4-Difluorophenoxy)-5-methoxyphenyl)-1-methyl-5-oxopyrrolidine-2-carboxamide]	50 to 300
COc1ccc(OC2CCCCC2)cc1NC(=O)C1CCC(=O)N1C (stereo not shown) [Compound 286, N-(5-(Cyclohexyloxy)-2-methoxyphenyl)-1-methyl-5-oxopyrrolidine-2-carboxamide]	50 to 300
COc1ccc(OC2C=CCCC2)cc1NC(=O)C1CCC(=O)N1C (stereo not shown) [Compound 287, N-(5-(Cyclohex-2-en-1-yloxy)-2-methoxyphenyl)-1-methyl-5-oxopyrrolidine-2-carboxamide]	301 to 2000
COc1ccc(Oc2ccc(Cl)cn2)cc1NC(=O)[C@@H]1CCC(=O)N1C [Compound 288, (S)—N-(5-((5-Chloropyridin-2-yl)oxy)-2-methoxyphenyl)-1-methyl-5-oxo-pyrrolidine-2-carboxamide]	50 to 300
COc1ccc(Oc2cccc(C(F)(F)F)c2)cc1NC(=O)C1CN(C(C)=O)C1 [Compound 289, 1-Acetyl-N-(2-methoxy-5-(3-(trifluoromethyl)phenoxy)phenyl)azetidine-3-carboxamide]	301 to 2000
COc1ccc(Oc2cccc(OC(F)(F)F)c2)cc1NC(=O)C1CCC(=O)N1C (stereo not shown) [Compound 291, N-(2-methoxy-5-(3-(trifluoromethoxy)phenoxy)phenyl)-1-methyl-5-oxo-pyrrolidine-2-carboxamide]	50 to 300
COc1cc(Oc2ccc(OC)c(NC(=O)[C@H]3CCC(=O)N3C)c2)ccc1F [Compound 293, (R)—N-(5-(4-Fluoro-3-methoxyphenoxy)-2-methoxyphenyl)-1-methyl-5-oxo-pyrrolidine-2-carboxamide]	50 to 300
COc1ccc(Oc2ccc(OC)c(NC(=O)C3CCC(=O)N3C)c2)cc1F (stereo not shown) [Compound 295, N-(5-(3-Fluoro-4-methoxyphenoxy)-2-methoxyphenyl)-1-methyl-5-oxo-pyrrolidine-2-carboxamide]	50 to 300

Continued, values first:

IC50 [nM]	SMILES
50 to 300	COc1ccc(O[C@H]2CCC[C@H](C(F)(F)F)C2)cc1NC(=O)[C@H]1CCC(=O)N1C [Compound 269, (R)—N-(2-Methoxy-5-(((1S,3S)-3-(trifluoromethyl)cyclohexyl)oxy)phenyl)-1-methyl-5-oxopyrrolidine-2-carboxamide]
50 to 300	CN1C(=O)CCC1C(=O)Nc1cc(OC2CCC(C(F)(F)F)CC2)ccc1F (stereo not shown) [Compound 270, N-(2-Fluoro-5-((4-(trifluoromethyl)cyclohexyl)oxy)phenyl)-1-methyl-5-oxo-pyrrolidine-2-carboxamide]
< 50	COc1ccc(Oc2ccc(C(F)(F)F)cn2)cc1NC(=O)C1CCC(=O)N1C (stereo not shown) [Compound 276, N-(2-methoxy-5-((5-(trifluoromethyl)pyridin-2-yl)oxy)phenyl)-1-methyl-5-oxopyrrolidine-2-carboxamide]
< 50	COc1cc(NC(=O)[C@H]2CCC(=O)N2C)cc(Oc2ccc(C(F)(F)F)cc2)c1 [Compound 278, (R)—N-(3-Methoxy-5-(4-(trifluoromethyl)phenoxy)phenyl)-1-methyl-5-oxo-pyrrolidine-2-carboxamide]
< 50	COc1cc(NC(=O)C2CCC(=O)N2C)cc(Oc2ccc(C(F)(F)F)cc2)c1 (stereo not shown) [Compound 279, N-(3-Methoxy-5-(4-(trifluoromethyl)phenoxy)phenyl)-1-methyl-5-oxo-pyrrolidine-2-carboxamide]
< 50	COc1cc(NC(=O)[C@H]2CCC(=O)N2C)cc(OC2CCC(C(F)(F)F)CC2)c1 (stereo partly shown) [Compound 282]
< 50	COc1ccc(Oc2ccc(C(F)(F)F)cn2)cc1NC(=O)[C@H]1CCC(=O)N1C [Compound 283, (R)—N-(2-Methoxy-5-((5-(trifluoromethyl)pyridin-2-yl)oxy)phenyl)-1-methyl-5-oxopyrrolidine-2-carboxamide]
< 50	COc1ccc(Oc2ccc(OC(F)(F)F)cc2)cc1NC(=O)[C@H]1CCC(=O)N1C [Compound 290, (R)—N-(2-methoxy-5-(4-(trifluoromethoxy)phenoxy)phenyl)-1-methyl-5-oxopyrrolidine-2-carboxamide]
< 50	COc1ccc(Oc2ccc(C(F)F)cc2)cc1NC(=O)C1CCC(=O)N1C (stereo not shown) [Compound 292, N-(5-(4-(Difluoromethyl)phenoxy)-2-methoxyphenyl)-1-methyl-5-oxo-pyrrolidine-2-carboxamide]
< 50	COc1ccc(OCC2CCCCC2)cc1NC(=O)C1CCC(=O)N1C (stereo not shown) [Compound 294, N-(5-(Cyclohexylmethoxy)-2-methoxyphenyl)-1-methyl-5-oxopyrrolidine-2-carboxamide]
< 50	COc1ccc(OC2CCC(C)(C)CC2)cc1NC(=O)C1CCC(=O)N1C (stereo not shown) [Compound 296, N-(5-((4,4-Dimethylcyclohexyl)oxy)-2-methoxyphenyl)-1-methyl-5-oxo-pyrrolidine-2-carboxamide]
< 50	COc1ccc(Sc2ccc(F)c(F)c2)cc1NC(=O)C1CCC(=O)N1C (stereo not shown) [Compound 297, N-(5-((3,4-Difluorophenyl)thio)-2-methoxyphenyl)-1-methyl-5-oxopyrrolidine-2-carboxamide]
< 50	COc1ccc(Sc2ccc(F)c(F)c2)cc1NC(=O)C1CCC(=O)N1 (stereo not shown) [Compound 298, N-(5-((3,4-Difluorophenyl)thio)-2-methoxyphenyl)-5-oxopyrrolidine-2-carboxamide]
